According to US5817674A, “Quinoline compounds” (Roussel Uclaf, priority 1991, dated 1998):

Columns and labels:
angiotensin II receptor = molecular target: T1, angiotensin II receptor (Rattus norvegicus, UniProt P25095); assay: Test on the angiotensin II receptor (rat liver membranes, 125I angiotensin II); assay type: binding; conditions: pH 7.4, 25° C., 150 minutes, read-out: IC50 (displacement of 50% of the specific radioactivity fixed on the receptor)
T1 construct: A fresh membrane preparation obtained from the liver of a rat was used; from tissue; host or cells: rat liver membranes
T1 sequence (P25095 1-359): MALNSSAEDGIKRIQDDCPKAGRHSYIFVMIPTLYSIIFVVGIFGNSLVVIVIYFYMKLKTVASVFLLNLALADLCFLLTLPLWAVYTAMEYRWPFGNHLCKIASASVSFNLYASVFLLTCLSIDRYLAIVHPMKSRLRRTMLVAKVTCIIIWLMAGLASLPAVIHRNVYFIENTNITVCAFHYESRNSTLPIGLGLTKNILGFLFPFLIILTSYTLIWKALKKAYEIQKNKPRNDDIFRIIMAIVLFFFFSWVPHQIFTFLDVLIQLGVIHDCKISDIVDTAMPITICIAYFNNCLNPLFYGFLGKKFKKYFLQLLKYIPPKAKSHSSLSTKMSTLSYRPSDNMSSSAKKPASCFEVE
Description: 1) Test on the angiotensin II receptor
A fresh membrane preparation obtained from the liver of a rat was used. The tissue was ground up in a polytron in a Tris 50 mM pH 7.4 buffer and after being ground up, the tissue was centrifuged 3 times at 30,000 g for 15 mintues with intermediate taking up of the deposits in the Tris pH 7.4 buffer. The last deposits were suspended in a pH 7.4 incubation buffer (Tris 20 mM, NaCl 135 mM, KCl 10 mM, glucose 5 mM, MgCl2 10 mM, benzyl sulfonyl fluoride 0.3 mM, bacitracin 0.1 mM, (0.2% bovine albumin serum). 2 ml aliquoted fractions were divided into hemolysis tubes and 125I angiotensin II (25,000 DPM/tube) and the product to be studied were added. The product was first tested at 3×10^-5 M in triplicate. When the test product displaced more than 50% of the radioactivity linked specifically to the receptor, it was tested again in a range of 7 concentrations to determine the concentration that inhibited the radioactivity linked specifically to the receptor by 50%. In this way, the 50% inhibiting concentration was determined.
The non-specific bond was determined by the addition of the product of Example 94 of the European Patent No. 0,253,310 at 10^-5 M (in triplicate). […]

[1] = tested on: angiotensin II on the isolated portal vein; assay: antagonistic activity of angiotensin II on the isolated portal vein; design: species or system male Wistar rats; conditions: rat isolated portal vein; angiotensin II 3.10^-8 M; compound 15 minutes before stimulation; 37° C.; verapamil 1.10^-6 M; read-out: IC50 (concentration that produced a 50% inhibition of the response to angiotensin)
Description: The portal vein was removed from male Wistar rats weighing about 350 g (IFFA Credo France) after cervical dislocation. It was put rapidly into a physiological solution (see below) at ambient temperature and a ring of about 1 mm was mounted in a bath with an isolated element containing 20 ml of the following physiological solution (composition in mM: NaCl 118.3-KCl 4.7-MgSO4 1.2-KH2 PO4 1.2-NaHCO3 25-glucose 11.1-CaCl2 2.5). The medium was held at 37° C. and oxygenated by a mixture of O2 95%, CO2 5%. The initial pressure imposed was 1 g and the rings were left at rest for 60 to 90 minutes. To avoid spontaneous contractions, verapamil was added to the incubation bath (1.10^-6 M).
At the end of rest period, angiotensin II (Ciba hypertensin) 3.10^-8 M was added to the incubation bath and left in contact with the preparation for one minute. This operation was repeated every 30 minutes with the tissue being washed 3 or 4 times between two stimulations with angiotensin. The compound to be studied was introduced into the bath 15 minutes before a new stimulation with angiotensin. As increasing concentrations of this molecule were used, an IC50 (concentration that produced a 50% inhibition of the response to angiotensin) was calculated, expressed in nanomoles.

endotheline receptor = molecular target: T2, endotheline receptor (Rattus norvegicus, UniProt P21451); assay: activity on the endotheline receptor (rat posterior cortex plus cerebellum membranes, 125I Endotheline); assay type: binding; conditions: pH 7.4, 25° C., 60 minutes, read-out: IC50 (displacement by 50% of the specific radioactivity fixed to the receptor)
T2 construct: prepared from rat's posteror cortex plus cerebellum; from tissue; host or cells: rat posterior cortex plus cerebellum membranes
T2 sequence (P21451 27-442): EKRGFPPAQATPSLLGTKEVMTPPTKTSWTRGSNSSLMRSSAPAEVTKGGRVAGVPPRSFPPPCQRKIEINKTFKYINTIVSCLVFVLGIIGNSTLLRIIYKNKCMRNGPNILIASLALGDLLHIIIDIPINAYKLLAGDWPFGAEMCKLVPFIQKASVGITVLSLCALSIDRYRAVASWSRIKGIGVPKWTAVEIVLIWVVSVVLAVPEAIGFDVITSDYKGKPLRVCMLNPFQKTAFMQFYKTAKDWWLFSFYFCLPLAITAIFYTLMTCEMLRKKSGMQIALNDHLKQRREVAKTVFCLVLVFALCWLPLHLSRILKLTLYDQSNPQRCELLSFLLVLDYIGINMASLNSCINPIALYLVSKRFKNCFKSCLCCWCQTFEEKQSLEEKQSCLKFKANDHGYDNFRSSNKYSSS
Description: 3) Study of the activity on the endotheline receptor
A membrane preparaton was prepared from rat's posteror cortex plus cerebellum. The tissue was ground up in a POLYTRON in a Tris buffer 50 mM pH=7.4. After 30 minutes at 25° C. (W.B.), the homogenate was centrifuged at 30,000 g for 15 minutes (2 centrifugings with intermediate taking up in the Tris buffer pH 7.4). The deposits were suspended in an incubation buffer (Tris 25 mM, pepsteatine 5 microg/ml, aprotinine 3 microg/ml. PMSF 0.1 mM, EDTA 3 mM, EGTA 1 mM pH 7.4). 2 ml aliquots were distributed in hemolysis tubes and 125I Endotheline (about 50,000 dpm/tube) and the product to be studied were added. The product was first tested at 3×10^-5 M in triplicate. When the tested product displaced by more than 50% the radioactivity linked specifically to the receptor, it was tested again in a range of 7 concentrations to determine the concentration that inhibited the radioactivity linked specifically to the receptor by 50%. In this way, the 50% inhibiting concentration was determined.
The non-specific bond was determined by the addition of endotheline at 10^-6 M (in triplicate). The aliquot was incubated at 25° C. for 60 minutes, put in a water bath at 0° C. for 5 minutes, filtered under reduced pressure, rinsed with Tris buffer 7.4 pH and the radioactivity was counted in the presence of scintillating Triton. […]

[2] = tested on: vasoconstrictive effect of endotheline; assay: antagonistic activity of the vasoconstrictive effect of endotheline in a demedullated rat; assay type: in vivo; conditions: 1 mg/kg (IV), 10 minutes before endotheline 1-3-10-30 μg/kg IV; anaesthetized demedullated Sprague Dawley rats
Description: 4) Investigation of an antagonistic activity of the vasoconstrictive effect of endotheline in a demedullated rat
The vasoconstriction caused by injections (IV) of cumulative doses of endotheline (1-3-10-30 μg/kg) was measured by the increase of average arterial pressure in a control group of rats (Sprague Dawley), anaesthetized, then demedullated.

IC50 (angiotensin II receptor) [nM] | IC50 [1] [nM] | IC50 (endotheline receptor) [nM] | SMILES | antagonistic effect: decrease in response to endotheline (average arterial pressure) [2]
540 | 131 |  | CCCCc1cc(Cc2ccc(-c3ccccc3C(=O)O)cc2)c2ccccc2n1 [Example 4, 4'-[(2-butyl-4-quinolinyl)-methyl](1,1'-biphenyl)-2-carboxylic acid] | 
 |  | 14000 | CC(C)Cc1cc(OCc2ccc(-c3ccccc3C(=O)O)cc2)c2cccc(C(F)(F)F)c2n1 [Example 35, 4'-(((2-(2-methylproyl)-8-(trifluoromethyl)-4-quinolinyl)-oxy)-methyl)(1,1'-biphenyl)-2-carboxylic acid] | antagonistic effect
